Laboratory results as given in US9949976B2, “Kinase inhibitor and use thereof” (Sihuan Pharmaceutical Holdings Group Ltd., priority 2013, dated 2018).

Experiments:
[1] = Linear pharmacokinetics in rat (PO); assay type: in vivo, male SD rat; details: for AUC(0-t) / Cmax / Tmax: male, SD, plasma
Procedure: Test animal: male SD rat, 3 rats/administration dose/test compound, weight: 200-240 g/rat.
100 μL whole blood was collected from caudal vein at each time point, added to an anticoagulation tube containing K2EDTA, and centrifuged at 8000 r/min in a high speed centrifuge for 6 min to separate the plasma; the plasma was stored in a refrigerator at −80° C.
The plasma samples of control agent and compound 1 were analyzed by precipitation of protein: to 30 μL plasma, 200 μL internal standard (acetonitrile solution containing 50 ng/mL PD0332991, the formula of which is
[drawing 62] prepared by referring to the method in Patent CN101001857A) was added; the resultant mixture was vortexed for 10 min at 1500 r/min, and centrifuged for 20 min at 4000 r/min; to 100 μL supernatant, 100 μL water was added; the resultant mixture was mixed homogeneously under vortexing and analyzed by LC-MS/MS.

[2] = PK in Colo-205 subcutaneous tumor model of BALB/c nude mouse; assay type: in vivo; details: female, plasma, Colo-205 tumor-bearing nude mouse, PO QD 22 days, after last administration
Procedure: Test animal: female nude mouse (BALB/c), 8 mice/dose group/test compound, weight: 19-27 g/mouse.
COLO205 cancer cells were cultured in RPMI-1640 medium containing inactivated 10% fetal bovine serum, 100 U/mL penicillin, 100 μg/mL streptomycin and 2 mM glutamine, in a 37° C., 5% CO2 incubator. The initial concentration of cell culture was 5×10^5 cells/mL, and the cells were transferred to other bottles every 3 or 4 days and passaged. Tumor cells in exponential growth phase were used for in vivo tumor seeding.
COLO205 tumor cells suspended in PBS were seeded subcutaneously to right lateral thorax of experimental animal at 1×10^7 cells/0.1 mL, and the animal was sacrificed when the tumor grew to a volume of 800 mm^3 to 1000 mm^3; under aseptic conditions, tumors were peeled off, and necrotic tissues were removed; the well-grown tumor tissues were selected; the tumor cells were isolated and subjected to primary culture and proliferation, and then were subcutaneously seeded to animal. The tumor cells were passaged for two generations in mice by this method, and the primary culture cells were seeded subcutaneously to right lateral thorax of experimental animal, at 5×10^6 cells/0.1 mL per animal. When tumor grew to a volume of about 100 mm^3, the animals were grouped and administered. For oral administration, the administration volume is 0.1 mL/10 g body weight of animal.
Blood collection: blood was collected from intraocular canthus. After the last administration (22th Day) of control agent and compound 1, blood/tumor was collected at the same time points, wherein 8 nude mice for each dose group were divided into A and B groups
A group (No. 1-4): blood was collected at 15 min, 1 h and 2 h, and the mouse was sacrificed after blood collection at 2 h;
B group (No. 5-8): blood was collected at 4 h, 8 h and 24 h, and the mouse was sacrificed after blood collection at 24 h;
100 μL whole blood at each time point was collected and added to an anticoagulation tube containing K2EDTA, and centrifuged at 4500 r/min at 4° C. in a high speed centrifuge for 5 min to separate the plasma; the plasma was stored in a refrigerator at −80° C.
The plasma samples of control agent and compound 1 were analyzed by precipitation of protein: to 50 μL plasma, 150 μL internal standard (acetonitrile solution containing 50 ng/mL dexamethasone) was added; the resultant mixture was vortexed at 1500 r/min for 3 min, and centrifuged at 4000 r/min for 20 min; to 100 μL supernatant, 100 μL water was added; the resultant mixture was mixed homogeneously under vortexing and analyzed by LC-MS/MS.

[3] = PK in U-87MG subcutaneous tumor model of BALB/c nude mouse; assay type: in vivo; details: female, plasma, U87MG tumor-bearing nude mouse, PO QD 3 weeks, after last administration (Day 22)
Procedure: Test animal: female nude mouse (BALB/c), 10 mice/dose group/test compound, weight: 18-22 g/mouse.
U87MG cells from ATCC were cultured in MEM medium containing 10% fetal bovine serum; the cells were digested with trypsin containing EDTA by conventional methods; the cells were passaged for two generations every week, and were continuously cultured in a 37° C., 5% CO2 incubator.
Tumor cells in exponential growth phase were collected; U87MG cells were adjusted with PBS and matrigel at a ratio of 1:1 to a concentration of 5×10^7/mL; 0.1 mL cell suspension was seeded subcutaneously to right back of each mouse by injection with a 1 mL syringe. Tumor volumes were observed and measured, and the average tumor volume of U87MG reached about 200 mm^3 8 days after seeding; the tumor-bearing mice were grouped and were treated by oral administration of test compounds, at a dose of 0.1 mL/10 g body weight.
Blood collection: blood was collected from intraocular canthus. After the last administration (Day 22) of control agent and compound 1, blood/tumor was collected at the same time points, wherein as to 10 nude mice for each dose group, one was for standby, and the other 9 mice were divided into three groups, i.e., A, B and C groups.
A group (No. 1-3): blood was collected before administration, and at 1 h and 2 h after administration, and the mouse was sacrificed after blood collection at 2 h;
B group (No. 4-6): blood was collected at 15 min, 4 h and 6 h after administration, and the mouse was sacrificed after blood collection at 6 h;
C group (No. 7-9): blood was collected at 30 min, 10 h and 24 h after administration, and the mouse was sacrificed after blood collection at 24 h;
300 μL whole blood was collected at each time point, added to an anticoagulation tube containing K2EDTA, and centrifuged at 8000 r/min in a high speed centrifuge for 6 min to separate the plasma; the plasma was stored in a refrigerator at −80° C.
The plasma samples of control agent and compound 1 were analyzed by precipitation of protein: 30 μL plasma was added to a 96-deep well plate, and 200 μL internal standard (acetonitrile solution containing 25 ng/mL PD0332991) was added; the resultant mixture was vortexed for 3 min at 1500 r/min, and centrifuged for 20 min at 4000 r/min; to 100 μL supernatant, 100 μL water was added; the resultant mixture was mixed homogeneously under vortexing and analyzed by LC-MS/MS.

| SMILES | AUC(0-t) ([1]; 15 mg/kg) [ng·h/mL] | Cmax ([1]; 15 mg/kg) [ng/mL] | Tmax ([1]; 15 mg/kg) [h] | AUC(0-t) ([1]; 45 mg/kg) [ng·h/mL] | Cmax ([1]; 45 mg/kg) [ng/mL] | Tmax ([1]; 45 mg/kg) [h] | AUC(0-t) ([1]; 135 mg/kg) [ng·h/mL] | Cmax ([1]; 135 mg/kg) [ng/mL] | Tmax ([1]; 135 mg/kg) [h] | AUC(0-t) ([2]; 25 mg/kg) [ng·h/mL] | Cmax ([2]; 25 mg/kg) [ng/mL] | Tmax ([2]; 25 mg/kg) [h] | AUC(0-t) ([2]; 100 mg/kg) [ng·h/mL] | Cmax ([2]; 100 mg/kg) [ng/mL] | Tmax ([2]; 100 mg/kg) [h] | AUC(0-t) ([3]; 50 mg/kg) [ng·h/mL] | Cmax ([3]; 50 mg/kg) [ng/mL] | Tmax ([3]; 50 mg/kg) [h] | AUC(0-t) ([3]; 100 mg/kg) [ng·h/mL] | Cmax ([3]; 100 mg/kg) [ng/mL] | further results |
| --- | --- | --- | --- | --- | --- | --- | --- | --- | --- | --- | --- | --- | --- | --- | --- | --- | --- | --- | --- | --- | --- |
| CCN1CCN(Cc2cnc(Nc3cc(-c4cc(F)c5nc(C)n(C(C)C)c5c4)c(F)cn3)nc2)CC1 [Compound 1, 5-((4-ethylpiperazin-1-yl)methyl)-N-(5-fluoro-4-(4-fluoro-1-isopropyl-2-methyl-1H-benzo[d]imidazol-6-yl)pyridin-2-yl)pyrimidin-2-amine] | 12600 | 941 | 4 | 37700 | 1580 | 4 | 136000 | 2410 | 24 | 12300 | 1140 | 2 | 48300 | 2420 | 8 | 23500 | 1770 | 2 | 34800 | 2180 | linear pharmacokinetic properties ([1]; 15-135 mg/kg, AUClast increases with dose in a linear manner): good linear pharmacokinetic properties; Tmax ([3]; 100 mg/kg): 1 h; AUC(0-t) ([3]; 200 mg/kg): 49700 ng·h/mL; Cmax ([3]; 200 mg/kg): 2510 ng/mL; Tmax ([3]; 200 mg/kg): 6 h |
| CCN1CCN(Cc2ccc(Nc3ncc(F)c(-c4cc(F)c5nc(C)n(C(C)C)c5c4)n3)nc2)CC1 [LY2835219, reference compound] | 9690 | 504 | 4 | 32600 | 860 | 4 | 97600 | 1370 | 24 | 9120 | 733 | 4 | 23000 | 1080 | 8 | 19400 | 1160 | 1 | 27900 | 1530 | Tmax ([3]; 100 mg/kg): 4 h |
